These results are taken from patent publication US4690937A, “Anti-hypertensive agents” (University of Miami, priority 1979, dated 1987).

Test [1] concerns the target T1, ACE (Homo sapiens, UniProt P12821).
T1 construct: same enzyme (human urinary ACE); from tissue; host or cells: human urine (purified as described by Ryan et al., Tissue and Cell 10, 555 (1978))
To be noted: previously disclosed compounds of copending applications, read-out: I50, cited from earlier work.

The target in test [2] is T1, ACE. In words: ACE activity assay in vitro (I50, hydrolysis of [3H]-Benzoyl-GlyHisLeu). It is filed as biochemical. How it is done: These factors include the source of enzyme, its purity, the substrate used and its concentration, and the composition of the assay buffer. All I50 data reported herein have been performed with the same assay system and same enzyme (human urinary ACE) and with an approximately 1/2 Km level of substrate and are therefore internaly consistent.
To initiate the assay, 40 μl of enzyme and 10 μl of water or inhibitor dissolved in water were preincubated for five minutes at 37° C. […] To terminate the reaction, 1 ml of 0.1M HCl was added, following which 1 ml of ethyl acetate was added. The mixture was agitated on a rotary mixer and centrifuged briefly to separate the phases.
An aliquot, 500μl, of the ethyl acetate layer was transferred to a liquid scintillation vial containing 10 ml of Riafluor, trademark New England Nuclear Corporation, Boston, Mass. For determination of I50 values, enzyme activity in the presence of inhibitor at a series of different concentrations was compared to activity in the absence of inhibitor.

The test system of test [3] is mean arterial blood pressure response to angiotensin I. The experiment in a line: Oral effectiveness: blood pressure response to angiotensin I in anesthetized rats. The class given is in vivo. To be noted: rat, oral 20 μmol/kg, -5 min (pre-dose control, 25 mm Hg). Here is the method:
(§1) Rats (210-290 g body weight) were fasted overnight and then anesthetized with intraperitoneal pentobarbital, 50-60 mg/kg. Tracheostomy was performed and the animals were ventilated mechanically. A cannula was inserted into a femoral vein for injection of angiotensin I, and a second cannula was inserted into a common carotid artery for direct measurement of arterial blood pressure. Heparin, 1,000 units, was injected via the femoral vein to prevent coagulation. Blood pressure was measured with a pressure transducer connected to a polygraph. The rats were injected with […] of angiotensin I in 20μl of 0.9 g % NaCl; an amount of angiotensin I sufficient to raise mean arterial blood pressure by 25 mm Hg. After the responsiveness of a given rat to angiotensin I was established, the named compound at 20 μmol/kg (drug dissolved in 0.15 ml of H2 O plus 10μl of 1 N NaHCO3), was given via a stomach tube. At timed intervals, the effects of 400 ng/kg of angiotensin I on mean arterial blood pressure were tested.

For test [4] the test system is unchanged. In words: Intravenous effectiveness: blood pressure response to angiotensin I in anesthetized rats. The class given is in vivo. To be noted: rat, in words. How it is done:
as §1, with “tested. Results are shown below:” for “tested.”
Anesthetized rats were prepared as described in Example 18. The named compound was administered intravenously via a femoral vein, at the stated dose, in 15 μl of 0.01 N sodium bicarbonate. […] The time required for recovery of one half the lost responsiveness to angiotensin I, following injection of the named compound, is designated t1/2. […]

In test [5] the test system is ACE. To be noted: disulfide formed on standing of aqueous solution; cited from earlier work.

Each structure is given as a SMILES string. Like-named read-outs stand apart in the source and are kept apart here. Residues, ends and D or L forms follow the SMILES beside them. *: point of attachment. Bz = O=C(c1ccccc1)*

T1 sequence (P12821 30-1232 limits assumed): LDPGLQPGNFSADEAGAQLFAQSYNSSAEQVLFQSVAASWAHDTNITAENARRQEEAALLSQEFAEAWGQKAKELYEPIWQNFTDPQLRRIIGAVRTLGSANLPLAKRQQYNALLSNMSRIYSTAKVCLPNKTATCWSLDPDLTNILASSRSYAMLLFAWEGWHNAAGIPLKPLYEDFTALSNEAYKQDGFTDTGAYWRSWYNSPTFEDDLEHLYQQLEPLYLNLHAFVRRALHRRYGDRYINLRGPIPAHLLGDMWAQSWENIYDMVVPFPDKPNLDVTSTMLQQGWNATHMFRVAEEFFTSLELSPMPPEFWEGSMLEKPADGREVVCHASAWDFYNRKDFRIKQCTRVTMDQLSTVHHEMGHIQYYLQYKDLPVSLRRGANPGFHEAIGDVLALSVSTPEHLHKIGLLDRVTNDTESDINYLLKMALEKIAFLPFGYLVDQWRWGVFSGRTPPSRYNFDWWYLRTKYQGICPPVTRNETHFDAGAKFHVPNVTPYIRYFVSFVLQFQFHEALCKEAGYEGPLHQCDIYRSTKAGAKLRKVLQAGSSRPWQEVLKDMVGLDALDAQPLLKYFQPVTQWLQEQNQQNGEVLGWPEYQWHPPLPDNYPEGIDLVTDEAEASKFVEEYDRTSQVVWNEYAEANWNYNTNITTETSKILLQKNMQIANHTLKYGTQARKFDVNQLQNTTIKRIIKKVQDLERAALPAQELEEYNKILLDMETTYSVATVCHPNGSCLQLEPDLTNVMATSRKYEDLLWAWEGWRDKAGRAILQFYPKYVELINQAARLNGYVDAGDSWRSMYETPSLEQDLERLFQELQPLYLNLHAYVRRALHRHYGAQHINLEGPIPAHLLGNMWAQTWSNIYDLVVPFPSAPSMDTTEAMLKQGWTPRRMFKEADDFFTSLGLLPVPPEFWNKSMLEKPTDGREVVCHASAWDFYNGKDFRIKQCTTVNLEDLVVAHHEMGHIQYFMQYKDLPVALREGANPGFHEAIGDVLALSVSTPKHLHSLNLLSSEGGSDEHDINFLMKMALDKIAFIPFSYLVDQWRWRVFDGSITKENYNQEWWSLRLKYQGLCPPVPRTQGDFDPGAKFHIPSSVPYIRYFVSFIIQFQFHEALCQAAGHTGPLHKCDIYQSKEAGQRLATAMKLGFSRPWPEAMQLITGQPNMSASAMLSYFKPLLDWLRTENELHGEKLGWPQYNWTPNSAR

`O=C(N[C@@H](Cc1ccccc1)C(=O)SCCC(=O)N1CCC[C@H]1C(=O)O)c1ccccc1`: on ACE [1] (approximate), the IC50 is about 700 nM.
Broadly, the Km is the substrate concentration at which the rate is half of its maximum. Take `CC(C)C[C@H](NC(=O)[C@H](Cc1cnc[nH]1)NC(=O)CNC(=O)c1ccccc1)C(=O)O` [Benzoyl-GlyHisLeu, reference compound] (Bz-Gly-His-Leu-OH): the Km at ACE [2] (substrate Benzoyl-GlyHisLeu, 0.05M Hepes pH 8.0, 0.1M NaCl, 0.75M Na2 SO4) is about 200 µM.
For the compound `CC(SC(=O)[C@H](Cc1ccccc1)NC(=O)c1ccccc1)C(=O)N1CC=C[C@H]1C(=O)O` (stereo partly drawn) [N-(2-benzoylphenylalanylthiopropanoyl)-L-3,4-dehydroproline], on ACE [1] (for racemic compound), the IC50 is 3 nM.
Regarding `C[C@H](CSC(=O)[C@H](Cc1c[nH]c2ccccc12)NC(=O)c1ccccc1)C(=O)N1CCC[C@H]1C(=O)O` [N^α -[3-(Nα-benzoyl-L-tryptophylthio)-2-D-methylpropanoyl]-L-proline], the “Blood Pressure Response to 400 ng/kg of Angiotensin I” value in test [3] is reported as 100 % of Control. In addition, the “Response to intravenous administration (responsiveness to Angiotensin I, 400 ng/kg)” value in test [4] was “rapid decrease in responsiveness to Angiotensin I, 400 ng/kg, followed by a gradual recovery to the pretreatment level of responsiveness”. At ACE [2] (ACE purified from human urine, pH 8.0, 37° C., Benzoyl-GlyHisLeu 1×10^-4 M), this compound had an IC50 of 9.4 nM.
On to `C[C@H](CSSC[C@@H](C)C(=O)N1CCC[C@H]1C(=O)O)C(=O)N1CCC[C@H]1C(=O)O` [disulfide], for which, in the test on ACE [5], the “ACE inhibition by the disulfide dimer” value is “largely inactive as an inhibitor”.
